Reference: ChEMBL document CHEMBL3885861, “Open TG-GATES”

Species on record: Rattus norvegicus
Assay: Open TG-GATES - Regimen: Single
Format: toxicity, organism-based, Sprague-Dawley
Design: regimen Single, gender Male, age 6 weeks
Settings: in vivo, po, 0 mg/kg, route gavage, dose level Control; for APTT / Bas / Eos / Fbg / Hb / Ht / Lym / MCH / MCHC / MCV / Mono / Neu / PT / Plat / RBC / Ret / WBC: tissue Blood; for KIDNEY_L / KIDNEY_R / KIDNEY_TOTAL: tissue Kidney; for LIVER: tissue Liver; for ALP / ALT / AST / BUN / CRE / DBIL / GLC / K / LDH / Na / PL / RALB / TBIL / TC / TG / TP / gamma-GTP: tissue Plasma

CC(CCc1ccccc1)NCC(O)c1ccc(O)c(C(N)=O)c1 (stereo not given) [LABETALOL] was tested. Which TERMINAL_BW (3 h) did it give?
Its TERMINAL_BW is 214.7 g.

What about the APTT (3 h) of the same compound?
The APTT was 16 s.

What about the Bas (3 h) of the same compound?
Its Bas is 0%.

What about the Eos (3 h) of the same compound?
Its Eos is 1%.

What about the Fbg (3 h) of the same compound?
The Fbg was 279.6 mg/dL.

What about the Hb (3 h) of the same compound?
Its Hb is 13 g/dL.

What about the Ht (3 h) of the same compound?
The Ht was 38.7%.

And the Lym (3 h)?
Its Lym is 80.6%.

And the MCH (3 h)?
Its MCH is 21.4 pg.

And the MCHC (3 h)?
The MCHC was 33.6%.

What about the MCV (3 h) of the same compound?
Its MCV is 63.6 fL.

What about the Mono (3 h) of the same compound?
The Mono was 3.4%.

And the Neu (3 h)?
Its Neu is 14.2%.

What about the PT (3 h) of the same compound?
Its PT is 13.1 s.

And the Plat (3 h)?
The Plat was 108.8 x10_4/uL.

What about the RBC (3 h) of the same compound?
Its RBC is 608.8 x10_4/ul.

What about the Ret (3 h) of the same compound?
Its Ret is 8%.

And the WBC (3 h)?
Its WBC is 90.7 x10_2/uL.

And the KIDNEY_L (3 h)?
Its KIDNEY_L is 0.9 g.

What about the KIDNEY_R (3 h) of the same compound?
The KIDNEY_R was 0.9 g.

And the KIDNEY_TOTAL (3 h)?
The KIDNEY_TOTAL was 1.8 g.

What about the LIVER (3 h) of the same compound?
Its LIVER is 9.4 g.

And the ALP (3 h)?
Its ALP is 1611 IU/L.

What about the ALT (3 h) of the same compound?
The ALT was 45.8 IU/L.

And the AST (3 h)?
Its AST is 77.4 IU/L.

And the BUN (3 h)?
Its BUN is 11.8 mg/dL.

What about the CRE (3 h) of the same compound?
Its CRE is 0.2 mg/dL.

What about the DBIL (3 h) of the same compound?
Its DBIL is 0.014 mg/dL.

And the GLC (3 h)?
The GLC was 184 mg/dL.

And the K (3 h)?
Its K is 3.8 meq/L.

What about the LDH (3 h) of the same compound?
The LDH was 70.6 IU/L.

What about the Na (3 h) of the same compound?
The Na was 142.6 meq/L.

And the PL (3 h)?
The PL was 141.8 mg/dL.

What about the RALB (3 h) of the same compound?
Its RALB is 2.6 g/dL.

What about the TBIL (3 h) of the same compound?
Its TBIL is 0.048 mg/dL.

And the TC (3 h)?
Its TC is 83 mg/dL.

What about the TG (3 h) of the same compound?
The TG was 68.4 mg/dL.

And the TP (3 h)?
The TP was 5.5 g/dL.

What about the gamma-GTP (3 h) of the same compound?
The gamma-GTP was 1.6 IU/L.

What about the TERMINAL_BW (6 h) of the same compound?
The TERMINAL_BW was 213.8 g.

What about the APTT (6 h) of the same compound?
Its APTT is 16.4 s.

What about the Bas (6 h) of the same compound?
Its Bas is 0%.

And the Eos (6 h)?
The Eos was 1%.

And the Fbg (6 h)?
The Fbg was 327.6 mg/dL.

What about the Hb (6 h) of the same compound?
The Hb was 13.3 g/dL.

And the Ht (6 h)?
Its Ht is 39%.

And the Lym (6 h)?
Its Lym is 72.8%.

What about the MCH (6 h) of the same compound?
The MCH was 21.8 pg.

And the MCHC (6 h)?
The MCHC was 34%.

And the MCV (6 h)?
Its MCV is 63.9 fL.

What about the Mono (6 h) of the same compound?
Its Mono is 3.4%.

And the Neu (6 h)?
Its Neu is 22.2%.

What about the PT (6 h) of the same compound?
Its PT is 12.9 s.

What about the Plat (6 h) of the same compound?
Its Plat is 104.3 x10_4/uL.

What about the RBC (6 h) of the same compound?
The RBC was 609.8 x10_4/ul.

And the Ret (6 h)?
The Ret was 8.3%.

What about the WBC (6 h) of the same compound?
The WBC was 100.8 x10_2/uL.

And the KIDNEY_L (6 h)?
Its KIDNEY_L is 0.9 g.

And the KIDNEY_R (6 h)?
Its KIDNEY_R is 1 g.

And the KIDNEY_TOTAL (6 h)?
The KIDNEY_TOTAL was 1.9 g.

What about the LIVER (6 h) of the same compound?
Its LIVER is 8.9 g.

And the ALP (6 h)?
Its ALP is 1394.4 IU/L.

And the ALT (6 h)?
Its ALT is 39.8 IU/L.

What about the AST (6 h) of the same compound?
The AST was 73.2 IU/L.

What about the BUN (6 h) of the same compound?
Its BUN is 8.6 mg/dL.

What about the CRE (6 h) of the same compound?
The CRE was 0.2 mg/dL.

What about the DBIL (6 h) of the same compound?
Its DBIL is 0.004 mg/dL.

And the GLC (6 h)?
Its GLC is 170.2 mg/dL.

And the K (6 h)?
The K was 4 meq/L.

And the LDH (6 h)?
Its LDH is 52.4 IU/L.

And the Na (6 h)?
Its Na is 142.6 meq/L.

What about the PL (6 h) of the same compound?
The PL was 136.4 mg/dL.

And the RALB (6 h)?
Its RALB is 2.5 g/dL.

What about the TBIL (6 h) of the same compound?
The TBIL was 0.038 mg/dL.

What about the TC (6 h) of the same compound?
The TC was 86.2 mg/dL.

What about the TG (6 h) of the same compound?
Its TG is 41.8 mg/dL.

And the TP (6 h)?
The TP was 5.4 g/dL.

And the gamma-GTP (6 h)?
The gamma-GTP was 1.2 IU/L.

And the TERMINAL_BW (9 h)?
Its TERMINAL_BW is 217.8 g.

What about the APTT (9 h) of the same compound?
The APTT was 16.8 s.

What about the Bas (9 h) of the same compound?
The Bas was 0%.

And the Eos (9 h)?
The Eos was 0.8%.

What about the Fbg (9 h) of the same compound?
The Fbg was 288 mg/dL.

And the Hb (9 h)?
Its Hb is 13.4 g/dL.

And the Ht (9 h)?
Its Ht is 39.5%.

What about the Lym (9 h) of the same compound?
The Lym was 80.6%.

And the MCH (9 h)?
The MCH was 21.7 pg.

And the MCHC (9 h)?
The MCHC was 33.9%.

What about the MCV (9 h) of the same compound?
The MCV was 64 fL.

And the Mono (9 h)?
Its Mono is 2.4%.

What about the Neu (9 h) of the same compound?
The Neu was 15.4%.

And the PT (9 h)?
The PT was 13.5 s.

What about the RBC (9 h) of the same compound?
Its RBC is 617.2 x10_4/ul.

And the Ret (9 h)?
The Ret was 7.6%.

What about the WBC (9 h) of the same compound?
Its WBC is 96.4 x10_2/uL.

And the KIDNEY_L (9 h)?
The KIDNEY_L was 0.9 g.

And the KIDNEY_R (9 h)?
The KIDNEY_R was 0.9 g.

What about the KIDNEY_TOTAL (9 h) of the same compound?
The KIDNEY_TOTAL was 1.8 g.

What about the LIVER (9 h) of the same compound?
The LIVER was 8.8 g.

What about the ALP (9 h) of the same compound?
The ALP was 1362.6 IU/L.

And the ALT (9 h)?
Its ALT is 39.4 IU/L.

And the AST (9 h)?
The AST was 72.8 IU/L.

And the BUN (9 h)?
Its BUN is 10.2 mg/dL.

What about the CRE (9 h) of the same compound?
The CRE was 0.2 mg/dL.

What about the DBIL (9 h) of the same compound?
Its DBIL is 0.01 mg/dL.

What about the GLC (9 h) of the same compound?
Its GLC is 175.6 mg/dL.

What about the K (9 h) of the same compound?
The K was 3.8 meq/L.

What about the LDH (9 h) of the same compound?
The LDH was 49.8 IU/L.

What about the Na (9 h) of the same compound?
The Na was 143 meq/L.

And the PL (9 h)?
Its PL is 133 mg/dL.

What about the RALB (9 h) of the same compound?
Its RALB is 2.6 g/dL.

What about the TBIL (9 h) of the same compound?
The TBIL was 0.046 mg/dL.

And the TC (9 h)?
Its TC is 75.8 mg/dL.

And the TG (9 h)?
The TG was 67.6 mg/dL.

And the TP (9 h)?
The TP was 5.5 g/dL.

And the gamma-GTP (9 h)?
Its gamma-GTP is 1.2 IU/L.

And the TERMINAL_BW (24 h)?
The TERMINAL_BW was 220.3 g.

And the APTT (24 h)?
Its APTT is 16.3 s.

What about the Bas (24 h) of the same compound?
The Bas was 0%.

What about the Eos (24 h) of the same compound?
The Eos was 1%.

What about the Fbg (24 h) of the same compound?
Its Fbg is 294.8 mg/dL.

And the Hb (24 h)?
Its Hb is 13 g/dL.

What about the Ht (24 h) of the same compound?
The Ht was 38%.

What about the Lym (24 h) of the same compound?
The Lym was 78.2%.

And the MCH (24 h)?
Its MCH is 21.5 pg.

What about the MCHC (24 h) of the same compound?
The MCHC was 34.1%.

What about the MCV (24 h) of the same compound?
Its MCV is 63.1 fL.

And the Mono (24 h)?
The Mono was 2.6%.

What about the Neu (24 h) of the same compound?
Its Neu is 17.4%.

And the PT (24 h)?
The PT was 12.8 s.

What about the Plat (24 h) of the same compound?
Its Plat is 119 x10_4/uL.

What about the RBC (24 h) of the same compound?
The RBC was 603.2 x10_4/ul.

And the Ret (24 h)?
The Ret was 7.9%.

What about the WBC (24 h) of the same compound?
The WBC was 78.3 x10_2/uL.

And the KIDNEY_L (24 h)?
Its KIDNEY_L is 0.9 g.

And the KIDNEY_R (24 h)?
Its KIDNEY_R is 0.9 g.

What about the KIDNEY_TOTAL (24 h) of the same compound?
The KIDNEY_TOTAL was 1.9 g.

And the LIVER (24 h)?
Its LIVER is 10.2 g.

What about the ALP (24 h) of the same compound?
Its ALP is 1641.6 IU/L.

What about the ALT (24 h) of the same compound?
Its ALT is 49.8 IU/L.

What about the AST (24 h) of the same compound?
The AST was 75.6 IU/L.

And the BUN (24 h)?
Its BUN is 15.8 mg/dL.

And the CRE (24 h)?
Its CRE is 0.2 mg/dL.

And the DBIL (24 h)?
Its DBIL is 0.012 mg/dL.

What about the GLC (24 h) of the same compound?
The GLC was 182.2 mg/dL.

And the K (24 h)?
Its K is 4.4 meq/L.

And the LDH (24 h)?
Its LDH is 59 IU/L.

What about the Na (24 h) of the same compound?
Its Na is 141.8 meq/L.

What about the PL (24 h) of the same compound?
Its PL is 150.8 mg/dL.

What about the RALB (24 h) of the same compound?
Its RALB is 2.7 g/dL.

And the TBIL (24 h)?
Its TBIL is 0.03 mg/dL.

What about the TC (24 h) of the same compound?
The TC was 88.4 mg/dL.

What about the TG (24 h) of the same compound?
Its TG is 82 mg/dL.

What about the TP (24 h) of the same compound?
Its TP is 5.7 g/dL.

And the gamma-GTP (24 h)?
Its gamma-GTP is 1.2 IU/L.
